Target: T1, class II fructose 1,6-bisphosphate aldolase (SaFBA) (Staphylococcus aureus, UniProt Q5HE75)
T1 sequence (Q5HE75 1-286): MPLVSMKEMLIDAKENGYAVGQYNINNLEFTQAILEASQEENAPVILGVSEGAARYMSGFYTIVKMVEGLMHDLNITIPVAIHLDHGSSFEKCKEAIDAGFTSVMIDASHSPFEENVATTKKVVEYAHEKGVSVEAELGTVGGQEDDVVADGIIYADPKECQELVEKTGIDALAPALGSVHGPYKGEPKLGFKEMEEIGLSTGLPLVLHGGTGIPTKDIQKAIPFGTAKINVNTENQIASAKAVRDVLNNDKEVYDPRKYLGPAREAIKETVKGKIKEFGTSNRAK
Assay: coupled fluorescence
Type: biochemical

O=C(O)c1ccc2cccc(O)c2n1 [HCA, 8-hydroxyquinoline-2-carboxylic acid]
Ki: 96 ± 22 µM
